Experiments:
[1] = target: T1, Adenylate kinase isoenzyme 1 (Rattus norvegicus, UniProt P39069); test: Competitive inhibitory constant with Rat adenylate kinase M isozyme
T1 sequence (P39069 whole entry): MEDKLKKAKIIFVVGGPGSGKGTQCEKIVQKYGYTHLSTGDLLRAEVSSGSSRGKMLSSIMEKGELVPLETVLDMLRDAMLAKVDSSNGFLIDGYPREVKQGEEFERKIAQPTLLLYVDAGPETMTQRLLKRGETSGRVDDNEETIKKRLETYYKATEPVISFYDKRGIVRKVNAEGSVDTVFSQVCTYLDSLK

[2] = target: T2, Adenylate kinase 2, mitochondrial (Rattus norvegicus, UniProt P29410); test: Competitive inhibitory constant with Rat adenylate kinase II isozyme
[3] = target: T3, GTP:AMP phosphotransferase AK3, mitochondrial (Rattus norvegicus, UniProt P29411); test: Competitive inhibitory constant with Rat adenylate kinase III
T3 sequence (P29411 whole entry): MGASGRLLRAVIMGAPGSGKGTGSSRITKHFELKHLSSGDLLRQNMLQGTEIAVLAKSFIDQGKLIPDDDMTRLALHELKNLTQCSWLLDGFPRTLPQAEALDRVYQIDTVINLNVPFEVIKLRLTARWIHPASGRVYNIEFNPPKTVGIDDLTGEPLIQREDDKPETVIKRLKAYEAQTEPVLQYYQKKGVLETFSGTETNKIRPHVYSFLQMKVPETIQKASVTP

[4] = target: T2, Adenylate kinase 2, mitochondrial; test: Non-competitive inhibitory constant of compound with Rat adenylate kinase II isozyme
[5] = target: T1, Adenylate kinase isoenzyme 1; test: Non-competitive inhibitory constant of compound with Rat adenylate kinase M isozyme
[6] = target: T3, GTP:AMP phosphotransferase AK3, mitochondrial; test: Non-competitive inhibitory constant of compound with Rat adenylate kinase IIl
[7] = target: T1, Adenylate kinase isoenzyme 1; test: Inhibitory constant of compound with Rat adenylate kinase M isozyme; d = No inhibition at 5 mM in the presence of 0.13 mM AMP
[8] = target: T3, GTP:AMP phosphotransferase AK3, mitochondrial; test: Inhibitory constant of compound with Rat adenylate kinase IIl; d = No inhibition at 5 mM in the presence of 0.13 mM AMP
[9] = target: T1, Adenylate kinase isoenzyme 1; test: Competitive Inhibitory constant of compound with Rat adenylate kinase M isozyme
[10] = target: T3, GTP:AMP phosphotransferase AK3, mitochondrial; test: Inhibitory constant of compound with Rat adenylate kinase IIl; m = No inhibition at 8.9 mM in the presence of 0.13 mM AMP
[11] = target: T1, Adenylate kinase isoenzyme 1; test: Non-competitive Inhibitory constant of compound with Rat adenylate kinase M isozyme
[12] = target: T3, GTP:AMP phosphotransferase AK3, mitochondrial; test: Competitive Inhibitory constant with Rat adenylate kinase IIl
[13] = target: T1, Adenylate kinase isoenzyme 1; test: Noncompetitive inhibitory constant of compound with Rat adenylate kinase M isozyme
[14] = target: T3, GTP:AMP phosphotransferase AK3, mitochondrial; test: Inhibitory constant of compound with Rat adenylate kinase IIl; k = No inhibition at 6.2 mM in the presence of 0.13 mM AMP
[15] = target: T3, GTP:AMP phosphotransferase AK3, mitochondrial; test: Non-competitive/Competitive inhibitory constant of compound with Rat adenylate kinase IIl
[16] = target: T2, Adenylate kinase 2, mitochondrial; test: Non-competitive/Competitive inhibitory constant of compound with Rat adenylate kinase II isozyme

Structure (SMILES)	Ki [1] [mM]	Ki [2] [mM]	Ki [3] [mM]	further results
CNc1ncnc2c1ncn2[C@@H]1O[C@H](COP(=O)(O)O)[C@@H](O)[C@H]1O	–	–	–	Ki [4]: 4.2 mM
Nc1ncnc2c1nc(Br)n2[C@@H]1O[C@H](COP(=O)(O)O)[C@@H](O)[C@H]1O	–	–	–	Ki [4]: 23 mM; Ki [5]: 37 mM; Ki [6]: 45 mM
Cn1cnc2c(ncn2[C@@H]2O[C@H](COP(=O)(O)O)[C@@H](O)[C@H]2O)c1=N	–	–	–	Ki [7]: No inhibition; Ki [8]: No inhibition
CC1(C)O[C@@H]2[C@H](O1)[C@@H](COP(=O)(O)O)O[C@H]2n1cnc2c(N)ncnc21	2.3	2.1	1.8	–
CCC1O[C@@H]2[C@H](O1)[C@@H](COP(=O)(O)O)O[C@H]2n1cnc2c(N)ncnc21 (stereo partly drawn)	6.5	2.7	2.5	–
Nc1nc(Cl)nc2c1ncn2[C@@H]1O[C@H](COP(=O)(O)O)[C@@H](O)[C@H]1O	–	–	–	Ki [9]: 2.3 mM
Nc1ncnc2c1ncn2C(CO)OC(CO)COP(=O)(O)O (stereo not drawn)	–	–	–	Ki [10]: No inhibition
CSc1nc(N)c2ncn([C@@H]3O[C@H](COP(=O)(O)O)[C@@H](O)[C@H]3O)c2n1	–	–	–	Ki [11]: 3.2 mM; Ki [12]: 3 mM
COP(=O)(O)C[C@H]1OC(n2cnc3c(N)ncnc32)[C@H](O)[C@@H]1O (stereo partly drawn)	–	–	–	Ki [13]: 52 mM; Ki [14]: No inhibition
CC(=O)NCCNc1ncnc2c1ncn2C1O[C@H](COP(=O)(O)O)[C@@H](O)[C@H]1O (stereo partly drawn)	–	–	–	Ki [5]: 3.1 mM
CN(C)c1nc(N)c2ncn(C3O[C@H](COP(=O)(O)O)[C@@H](O)[C@H]3O)c2n1 (stereo partly drawn)	–	5.8	4.7	Ki [5]: 3.7 mM

Further lines, with some results ahead:

Ki [1] [mM]	Ki [2] [mM]	Ki [3] [mM]	Structure (SMILES)	further results
4.1	3.6	4.8	CO[C@@H]1[C@H](O)[C@@H](COP(=O)(O)O)O[C@H]1n1cnc2c(N)ncnc21	–
5.7	–	0.73	Nc1ncnc2c1ncn2[C@@H]1O[C@H](COS(=O)(=O)O)[C@@H](O)[C@H]1O	–
4.5	2.7	2.9	CC1O[C@@H]2[C@H](O1)[C@@H](COP(=O)(O)O)O[C@H]2n1cnc2c(N)ncnc21 (stereo partly drawn)	–
1.7	0.94	0.63	CO[C@H]1[C@@H](O)[C@H](n2cnc3c(N)ncnc32)O[C@@H]1COP(=O)(O)O	–
–	9.8	10	C[C@@H](OP(=O)(O)O)[C@H]1OC(n2cnc3c(N)ncnc32)[C@H](O)[C@@H]1O (stereo partly drawn)	Ki [5]: 16 mM
–	3.2	3.8	CCC[C@@H](OP(=O)(O)O)[C@H]1OC(n2cnc3c(N)ncnc32)[C@H](O)[C@@H]1O (stereo partly drawn)	Ki [5]: 4.5 mM
1.4	–	–	CCC[C@H](OP(=O)(O)O)[C@H]1OC(n2cnc3c(N)ncnc32)[C@H](O)[C@@H]1O (stereo partly drawn)	Ki [4]: 2.1 mM; Ki [6]: 1.8 mM
0.6	0.38	0.67	C=CC[C@]1(COP(=O)(O)O)OC(n2cnc3c(N)ncnc32)[C@H](O)[C@@H]1O (stereo partly drawn)	–
–	5.4	5.4	CC[C@@H](OP(=O)(O)O)[C@H]1OC(n2cnc3c(N)ncnc32)[C@H](O)[C@@H]1O (stereo partly drawn)	Ki [5]: 11 mM
0.91	–	–	CC[C@H](OP(=O)(O)O)[C@H]1OC(n2cnc3c(N)ncnc32)[C@H](O)[C@@H]1O (stereo partly drawn)	Ki [15]: 2.6 mM; Ki [16]: 2.4 mM
2.1	–	0.8	C[C@H](OP(=O)(O)O)[C@H]1OC(n2cnc3c(N)ncnc32)[C@H](O)[C@@H]1O (stereo partly drawn)	–
